One test relates to Staphylococcus aureus. As to the kind of experiment: In vitro antimicrobial activity against Staphylococcus aureus X1. The format is functional.
Test [1] has as its system Streptococcus pyogenes. As to the kind of experiment: In vitro antimicrobial activity against Streptococcus pyogenes C203. The format is functional.
Test [2] has as its system Streptococcus pyogenes. As to the kind of experiment: In vivo effective dose against experimental infections in rodent caused by Streptococcus pyogenes C203 when administered sc. It is filed as functional.
The test system of a further test is Streptococcus pneumoniae. As to the kind of experiment: In vitro antimicrobial activity against Streptococcus pneumoniae. It is filed as functional.
The test system of another test is Enterococcus faecium. As to the kind of experiment: In vitro antimicrobial activity against Streptococcus faecium X66. The format is functional, streptococcus fae-cium.
Test [3] relates to Staphylococcus epidermidis. As to the kind of experiment: In vitro antimicrobial activity against Staphylococcus epidermidis EPI1. It is filed as functional.
In another test the test system is Haemophilus influenzae. As to the kind of experiment: In vitro antimicrobial activity against Haemophilus influenzae. The format is functional.

This is an account of results in ChEMBL document CHEMBL1124186, “Synthesis and evaluation of tylosin-related macrolides modified at the aldehyde function: a new series of orally effective antibiotics” (1988).

The ED50 is the dose at which the effect has come halfway, by size or by number of responders.

Structures are written as SMILES. Values after ≈ are worked out from the molar mass of the structure shown.

Take `CC[C@H]1OC(=O)C[C@@H](O)[C@H](C)[C@@H](O[C@@H]2O[C@H](C)[C@@H](O)[C@H](N(C)C)[C@H]2O)[C@@H](CCOC)C[C@@H](C)C(=O)/C=C/C(C)=C/[C@@H]1CO[C@@H]1O[C@H](C)[C@@H](O)[C@@H](OC)[C@H]1OC`: the MIC against Staphylococcus aureus worked out at 0.5 mg/L (≈ 0.635 µM); in the test with Streptococcus pyogenes [1], 0.5 mg/L (≈ 0.635 µM); against Streptococcus pneumoniae it was 4 mg/L (≈ 5.08 µM); in the test on Enterococcus faecium, 16 mg/L (≈ 20.3 µM); in test [3] it was 0.5 mg/L (≈ 0.635 µM). In the test with Streptococcus pyogenes [2], this molecule registered an ED50 greater than 6.3 mg/kg.

As to `CCOC(=O)c1ccc(OCC[C@H]2C[C@@H](C)C(=O)/C=C/C(C)=C/[C@H](CO[C@@H]3O[C@H](C)[C@@H](O)[C@@H](OC)[C@H]3OC)[C@@H](CC)OC(=O)C[C@@H](O)[C@H](C)[C@H]2O[C@@H]2O[C@H](C)[C@@H](O)[C@H](N(C)C)[C@H]2O)cc1`, the MIC against Staphylococcus aureus came out at 0.5 mg/L (≈ 0.542 µM); in the test with Streptococcus pyogenes [1], 0.5 mg/L (≈ 0.542 µM); against Streptococcus pneumoniae it was 1 mg/L (≈ 1.08 µM); against Enterococcus faecium, 8 mg/L (≈ 8.68 µM); in test [3], 0.5 mg/L (≈ 0.542 µM). Also, the ED50 in the test on Streptococcus pyogenes [2] is greater than 10 mg/kg.

Turning to `CC[C@H]1C[C@@H](C)C(=O)/C=C/C(C)=C/[C@H](C)[C@@H](CC)OC(=O)C[C@@H](O)[C@H](C)[C@H]1O[C@@H]1O[C@H](C)[C@@H](O[C@H]2C[C@@](C)(O)[C@@H](O)[C@H](C)O2)[C@H](N(C)C)[C@H]1O`, the MIC against Staphylococcus aureus is 128 mg/L (≈ 180 µM); with Streptococcus pyogenes [1], 128 mg/L (≈ 180 µM); against Streptococcus pneumoniae it was 64 mg/L (≈ 89.9 µM); in the test with Haemophilus influenzae, greater than 128 mg/L; in the test with Enterococcus faecium, greater than 128 mg/L; in test [3], 64 mg/L (≈ 89.9 µM).

With `CC[C@H]1OC(=O)C[C@@H](O)[C@H](C)[C@@H](O[C@@H]2O[C@H](C)[C@@H](O[C@H]3C[C@@](C)(O)[C@@H](O)[C@H](C)O3)[C@H](N(C)C)[C@H]2O)[C@@H](CCNc2ccc(OC(C)=O)cc2)C[C@@H](C)C(=O)/C=C/C(C)=C/[C@@H]1CO[C@@H]1O[C@H](C)[C@@H](O)[C@@H](OC)[C@H]1OC`, the MIC in the test on Staphylococcus aureus was 1 mg/L (≈ 0.951 µM); against Streptococcus pyogenes [1], 2 mg/L (≈ 1.9 µM); against Streptococcus pneumoniae, 1 mg/L (≈ 0.951 µM); against Haemophilus influenzae it was 128 mg/L (≈ 122 µM); against Enterococcus faecium, 64 mg/L (≈ 60.9 µM); in test [3], 0.5 mg/L (≈ 0.476 µM).

In the case of `CC[C@H]1OC(=O)C[C@@H](O)[C@H](C)[C@@H](O[C@@H]2O[C@H](C)[C@@H](O[C@H]3C[C@@](C)(O)[C@@H](O)[C@H](C)O3)[C@H](N(C)C)[C@H]2O)[C@@H](CCOc2ccc(-c3ccccc3)cc2)C[C@@H](C)C(=O)/C=C/C(C)=C/[C@@H]1CO[C@@H]1O[C@H](C)[C@@H](O)[C@@H](OC)[C@H]1OC`, the MIC in the test with Staphylococcus aureus was 2 mg/L (≈ 1.87 µM); against Streptococcus pyogenes [1], 2 mg/L (≈ 1.87 µM); with Streptococcus pneumoniae, 1 mg/L (≈ 0.934 µM); against Haemophilus influenzae, greater than 128 mg/L; in the test with Enterococcus faecium it was 8 mg/L (≈ 7.47 µM); in test [3], 2 mg/L (≈ 1.87 µM).

With `CC[C@H]1OC(=O)C[C@@H](O)[C@H](C)[C@@H](O[C@@H]2O[C@H](C)[C@@H](O[C@H]3C[C@@](C)(O)[C@@H](O)[C@H](C)O3)[C@H](N(C)C)[C@H]2O)[C@@H](CC=O)C[C@@H](C)C(=O)/C=C/C(C)=C/[C@@H]1C`, the MIC turned out to be 0.5 mg/L (≈ 0.689 µM) against Staphylococcus aureus; 0.25 mg/L (≈ 0.344 µM) against Streptococcus pyogenes [1]; 0.12 mg/L (≈ 0.165 µM) against Streptococcus pneumoniae; 8 mg/L (≈ 11 µM) in the test with Haemophilus influenzae; 0.5 mg/L (≈ 0.689 µM) against Enterococcus faecium; 0.5 mg/L (≈ 0.689 µM) in test [3].

For `CC[C@H]1OC(=O)C[C@@H](O)[C@H](C)[C@@H](O[C@@H]2O[C@H](C)[C@@H](O[C@H]3C[C@@](C)(O)[C@@H](O)[C@H](C)O3)[C@H](N(C)C)[C@H]2O)[C@@H](CCOc2ccc(C(=O)c3ccccc3)cc2)C[C@@H](C)C(=O)/C=C/C(C)=C/[C@@H]1CO[C@@H]1O[C@H](C)[C@@H](O)[C@@H](OC)[C@H]1OC`, the MIC in the test on Staphylococcus aureus is 1 mg/L (≈ 0.91 µM); against Streptococcus pyogenes [1], 2 mg/L (≈ 1.82 µM); against Streptococcus pneumoniae it was 1 mg/L (≈ 0.91 µM); in the test with Haemophilus influenzae, greater than 128 mg/L; with Enterococcus faecium, 4 mg/L (≈ 3.64 µM); in test [3], 2 mg/L (≈ 1.82 µM).

Consider `CC[C@H]1OC(=O)C[C@@H](O)[C@H](C)[C@@H](O[C@@H]2O[C@H](C)[C@@H](O[C@H]3C[C@@](C)(O)[C@@H](O)[C@H](C)O3)[C@H](N(C)C)[C@H]2O)[C@@H](CCN2C(=O)c3ccccc3C2=O)C[C@@H](C)C(=O)/C=C/C(C)=C/[C@@H]1CO`, for which the MIC in the test with Staphylococcus aureus was 64 mg/L (≈ 73.3 µM); in the test with Streptococcus pyogenes [1], 128 mg/L (≈ 147 µM); in the test on Streptococcus pneumoniae, 16 mg/L (≈ 18.3 µM); in the test with Haemophilus influenzae it was greater than 128 mg/L; in the test on Enterococcus faecium, greater than 128 mg/L; in test [3], 32 mg/L (≈ 36.7 µM).

With `CC[C@H]1OC(=O)C[C@@H](O)[C@H](C)[C@@H](O[C@@H]2O[C@H](C)[C@@H](O[C@H]3C[C@@](C)(O)[C@@H](O)[C@H](C)O3)[C@H](N(C)C)[C@H]2O)[C@@H](CCOc2ccc(C=O)cc2)C[C@@H](C)C(=O)/C=C/C(C)=C/[C@@H]1CO[C@@H]1O[C@H](C)[C@@H](O)[C@@H](OC)[C@H]1OC`, the MIC was 1 mg/L (≈ 0.978 µM) in the test with Staphylococcus aureus; 1 mg/L (≈ 0.978 µM) with Streptococcus pyogenes [1]; 16 mg/L (≈ 15.7 µM) against Streptococcus pneumoniae; greater than 128 mg/L with Haemophilus influenzae; 128 mg/L (≈ 125 µM) against Enterococcus faecium; 1 mg/L (≈ 0.978 µM) in test [3].

Consider `CCOC(=O)NN(CC[C@H]1C[C@@H](C)C(=O)/C=C/C(C)=C/[C@H](CO[C@@H]2O[C@H](C)[C@@H](O)[C@@H](OC)[C@H]2OC)[C@@H](CC)OC(=O)C[C@@H](O)[C@H](C)[C@H]1O[C@@H]1O[C@H](C)[C@@H](O[C@H]2C[C@@](C)(O)[C@@H](O)[C@H](C)O2)[C@H](N(C)C)[C@H]1O)C(=O)OCC`, for which the MIC was 2 mg/L (≈ 1.86 µM) against Staphylococcus aureus; 8 mg/L (≈ 7.43 µM) with Streptococcus pyogenes [1]; 8 mg/L (≈ 7.43 µM) in the test on Streptococcus pneumoniae; greater than 128 mg/L against Haemophilus influenzae; greater than 128 mg/L in the test on Enterococcus faecium; 4 mg/L (≈ 3.72 µM) in test [3].

Regarding `CC[C@H]1OC(=O)C[C@@H](O)[C@H](C)[C@@H](O[C@@H]2O[C@H](C)[C@@H](O[C@H]3C[C@@](C)(O)[C@@H](O)[C@H](C)O3)[C@H](N(C)C)[C@H]2O)[C@@H](CCOc2ccc(OC(C)=O)cc2)C[C@@H](C)C(=O)/C=C/C(C)=C/[C@@H]1CO[C@@H]1O[C@H](C)[C@@H](O)[C@@H](OC)[C@H]1OC`, the MIC is 0.5 mg/L (≈ 0.475 µM) against Staphylococcus aureus; 0.5 mg/L (≈ 0.475 µM) against Streptococcus pyogenes [1]; 0.5 mg/L (≈ 0.475 µM) in the test on Streptococcus pneumoniae; greater than 128 mg/L in the test with Haemophilus influenzae; 8 mg/L (≈ 7.6 µM) against Enterococcus faecium; 0.5 mg/L (≈ 0.475 µM) in test [3].

On to `CC[C@H]1OC(=O)C[C@@H](O)[C@H](C)[C@@H](O[C@@H]2O[C@H](C)[C@@H](O[C@H]3C[C@@](C)(O)[C@@H](O)[C@H](C)O3)[C@H](N(C)C)[C@H]2O)[C@@H](CCOc2cccc(N(C)C)c2)C[C@@H](C)C(=O)/C=C/C(C)=C/[C@@H]1CO[C@@H]1O[C@H](C)[C@@H](O)[C@@H](OC)[C@H]1OC`, for which the MIC is 1 mg/L (≈ 0.964 µM) in the test on Staphylococcus aureus; 1 mg/L (≈ 0.964 µM) with Streptococcus pyogenes [1]; 8 mg/L (≈ 7.71 µM) against Streptococcus pneumoniae; 128 mg/L (≈ 123 µM) against Haemophilus influenzae; 64 mg/L (≈ 61.7 µM) against Enterococcus faecium; 1 mg/L (≈ 0.964 µM) in test [3].

With `CC[C@H]1OC(=O)C[C@@H](O)[C@H](C)[C@@H](O[C@@H]2O[C@H](C)[C@@H](O[C@H]3C[C@@](C)(O)[C@@H](O)[C@H](C)O3)[C@H](N(C)C)[C@H]2O)[C@@H](CCO)C[C@@H](C)C(=O)/C=C/C(C)=C/[C@@H]1CO`, the MIC against Staphylococcus aureus was greater than 128 mg/L; against Streptococcus pyogenes [1], 64 mg/L (≈ 86 µM); with Streptococcus pneumoniae it was 64 mg/L (≈ 86 µM); against Haemophilus influenzae it was greater than 128 mg/L; with Enterococcus faecium, greater than 128 mg/L; in test [3] it was 128 mg/L (≈ 172 µM).

Consider `CC[C@H]1OC(=O)C[C@@H](O)[C@H](C)[C@@H](O[C@@H]2O[C@H](C)[C@@H](O)[C@H](N(C)C)[C@H]2O)[C@@H](CCN2C(=O)c3ccccc3C2=O)C[C@@H](C)C(=O)/C=C/C(C)=C/[C@@H]1CO`, for which the MIC against Staphylococcus aureus turned out to be 4 mg/L (≈ 5.49 µM); against Streptococcus pyogenes [1], 64 mg/L (≈ 87.8 µM); against Streptococcus pneumoniae, 64 mg/L (≈ 87.8 µM); in the test on Haemophilus influenzae, 64 mg/L (≈ 87.8 µM); against Enterococcus faecium, 16 mg/L (≈ 22 µM); in test [3], 4 mg/L (≈ 5.49 µM).
